Patent US20260242419A1, “A CYCLIC PEPTIDE FOR TRAPPING INTERLEUKIN-1 BETA” (Merck Sharp & Dohme LLC, priority 2023, published 2026)
Starred links: 1 amine or outer side, 2 acyl side, 3 side chain; linkers in the order of their positions; H or OH if unused. Non-standard residues stand in square brackets, D forms with d. Residues, ends and D or L forms follow the SMILES beside them. Phe(4-(trans-4-COOH-cHex)) = N[C@@H](Cc1ccc([C@H]2CC[C@H](C(=O)O)CC2)cc1)C(=O)O; Phe(4-(cis-4-COOH-cHex)) = N[C@@H](Cc1ccc([C@H]2CC[C@@H](C(=O)O)CC2)cc1)C(=O)O; Phe(4-(5-CO2H-2-pyrimidyl)) = N[C@@H](Cc1ccc(-c2ncc(C(=O)O)cn2)cc1)C(=O)O; Trp(βS-Me,4-F) = C[C@@H](c1c[nH]c2cccc(F)c12)[C@H](N)C(=O)O; 3Aminoazetidine3carboxyl = O=C(C1(N[*:1])CN([*:3])C1)[*:2]; Bip(4'-COOH) = N[C@@H](Cc1ccc(-c2ccc(C(=O)O)cc2)cc1)C(=O)O; Ala(1-bicyclo(1.1.1)pentyl) = N[C@@H](CC12CC(C1)C2)C(=O)O; dPro(4R-Bzl(4-F)) = O=C(O)[C@H]1C[C@@H](Cc2ccc(F)cc2)CN1; X14 = O=C([C@H]1[C@@H](Cc2ccccc2)CCN1[*:1])[*:2]; X9 = O=C([C@H]1[C@@H](Cc2cncnc2)CCN1[*:1])[*:2]; Ala(pyrimidin-5-yl) = N[C@@H](Cc1cncnc1)C(=O)O; Phe(4-COOH) = N[C@@H](Cc1ccc(C(=O)O)cc1)C(=O)O; Pro(cis-4-F) = O=C(O)[C@@H]1C[C@H](F)CN1; AEF = NCCOc1ccc(C[C@H](N)C(=O)O)cc1; 2Pal = N[C@@H](Cc1ccccn1)C(=O)O; 3Pal = N[C@@H](Cc1cccnc1)C(=O)O; 4Pal = N[C@@H](Cc1ccncc1)C(=O)O; αMeK = C[C@](N)(CCCCN)C(=O)O; Api = NC1(C(=O)O)CCNCC1; Dab = NCC[C@H](N)C(=O)O; Aib = CC(C)(N)C(=O)O

molecular target: T1, IL-1β (Homo sapiens, UniProt P01584); test: IL-6 assay in MRC5 cells: inhibition of IL-1β induced IL-6 secretion (AlphaLISA); assay type: cell-based; settings: inhibition of IL-1β induced IL-6 secretion in MRC5 cells; read-out: MRC5 IC50
T1 construct: purchased BioLegend 579404
T1 sequence (P01584 117-269): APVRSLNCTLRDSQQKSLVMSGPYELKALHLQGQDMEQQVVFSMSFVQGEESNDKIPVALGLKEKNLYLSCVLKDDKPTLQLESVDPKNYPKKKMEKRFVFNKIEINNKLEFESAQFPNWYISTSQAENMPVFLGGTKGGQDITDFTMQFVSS
Method in brief: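 Compound was pre-incubated 1 h at ambient temperature with recombinant human IL-1β at 2λ EC80 before adding human lung fibroblast MRC5 cells (3000/well) in EMEM with 0.025% BSA. After overnight culture at 37 °C, 5% CO2, secreted IL-6 in conditioned medium was measured by AlphaLISA; IC50 from 4-parameter logistic fits.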

Question: Which IC50 does the source give for C[C@@H](c1c[nH]c2cccc(F)c12)[C@@H]1NC(=O)[C@@H]2C[C@H](F)CN2C(=O)CNC(=O)[C@H](Cc2ccc(C(=O)O)cc2)NC(=O)[C@H](Cc2ccncc2)NC(=O)[C@H](Cc2ccc(-c3ccc(C(=O)O)cc3)cc2)NC(=O)[C@H]2C[C@@H](Cc3ccc(F)cc3)CN2C(=O)CNC(=O)[C@H](CCN)NC(=O)[C@H](CCC(N)=O)NC(=O)[C@H](Cc2cncnc2)NC(=O)C2(CCNCC2)NC(=O)[C@H](Cc2c[nH]c3ccccc23)NC(=O)[C@H](CCC(=O)O)NC(=O)C(C)(C)NC1=O [Example 65] (cyclo([Bip(4'-COOH)][4Pal][Phe(4-COOH)]G[Pro(cis-4-F)][Trp(βS-Me,4-F)][Aib]EW[Api][Ala(pyrimidin-5-yl)]Q[Dab]G[dPro(4R-Bzl(4-F))])) here?
Answer: The IC50 was 0.025 nM.

Question: With C[C@@H](c1c[nH]c2cccc(F)c12)[C@@H]1NC(=O)[C@@H]2C[C@H](F)CN2C(=O)CNC(=O)[C@H](Cc2ccc(C(=O)O)cc2)NC(=O)[C@H](Cc2ccncc2)NC(=O)[C@H](Cc2ccc(-c3ccc(C(=O)O)cc3)cc2)NC(=O)[C@H]2C[C@@H](Cc3ccc(F)cc3)CN2C(=O)CNC(=O)[C@H](CCN)NC(=O)[C@H](CCC(N)=O)NC(=O)[C@H](Cc2cncnc2)NC(=O)C(C)(C)NC(=O)[C@H](Cc2c[nH]c3ccccc23)NC(=O)[C@H](CCC(=O)O)NC(=O)[C@](C)(CCCCN)NC1=O [Example 66] (cyclo([Bip(4'-COOH)][4Pal][Phe(4-COOH)]G[Pro(cis-4-F)][Trp(βS-Me,4-F)][αMeK]EW[Aib][Ala(pyrimidin-5-yl)]Q[Dab]G[dPro(4R-Bzl(4-F))])) as the compound, how does the IC50 read?
Answer: Its IC50 is 0.028 nM.

Question: Which IC50 does the source give for C[C@@H](c1c[nH]c2cccc(F)c12)[C@@H]1NC(=O)[C@@H]2C[C@H](F)CN2C(=O)CNC(=O)[C@H](Cc2ccc(C(=O)O)cc2)NC(=O)[C@H](Cc2ccncc2)NC(=O)[C@H](Cc2ccc(-c3ccc(C(=O)O)cc3)cc2)NC(=O)[C@H]2C[C@@H](Cc3ccc(F)cc3)CN2C(=O)CNC(=O)[C@H](CCN)NC(=O)[C@H](CCC(N)=O)NC(=O)[C@H](Cc2cncnc2)NC(=O)[C@](C)(CCCCN)NC(=O)[C@H](Cc2c[nH]c3ccccc23)NC(=O)[C@H](CCC(=O)O)NC(=O)C(C)(C)NC1=O [Example 67] (cyclo([4Pal][Phe(4-COOH)]G[Pro(cis-4-F)][Trp(βS-Me,4-F)][Aib]EW[αMeK][Ala(pyrimidin-5-yl)]Q[Dab]G[dPro(4R-Bzl(4-F))][Bip(4'-COOH)])) here?
Answer: The IC50 was 0.021 nM.

Question: C[C@@H](c1c[nH]c2cccc(F)c12)[C@@H]1NC(=O)[C@@H]2C[C@H](F)CN2C(=O)CNC(=O)[C@H](Cc2ccc(C(=O)O)cc2)NC(=O)[C@H](Cc2ccncc2)NC(=O)[C@H](Cc2ccc([C@H]3CC[C@H](C(=O)O)CC3)cc2)NC(=O)[C@H]2C[C@@H](Cc3ccc(F)cc3)CN2C(=O)CNC(=O)[C@H](CCN)NC(=O)[C@H](CCC(N)=O)NC(=O)[C@H](Cc2cncnc2)NC(=O)C2(CNC2)NC(=O)[C@H](Cc2c[nH]c3ccccc23)NC(=O)[C@H](CCC(=O)O)NC(=O)C(C)(C)NC1=O [Example 68] (cyclo([Phe(4-(trans-4-COOH-cHex))][4Pal][Phe(4-COOH)]G[Pro(cis-4-F)][Trp(βS-Me,4-F)][Aib]EW[3Aminoazetidine3carboxyl][Ala(pyrimidin-5-yl)]Q[Dab]G[dPro(4R-Bzl(4-F))])) was tested. Which IC50 did it give?
Answer: Its IC50 is 0.029 nM.

Question: C[C@@H](c1c[nH]c2cccc(F)c12)[C@@H]1NC(=O)[C@@H]2C[C@H](F)CN2C(=O)CNC(=O)[C@H](Cc2ccc(C(=O)O)cc2)NC(=O)[C@H](Cc2ccncc2)NC(=O)[C@H](Cc2ccc([C@H]3CC[C@@H](C(=O)O)CC3)cc2)NC(=O)[C@H]2C[C@@H](Cc3ccc(F)cc3)CN2C(=O)CNC(=O)[C@H](CCN)NC(=O)[C@H](CCC(N)=O)NC(=O)[C@H](Cc2cncnc2)NC(=O)C2(CNC2)NC(=O)[C@H](Cc2c[nH]c3ccccc23)NC(=O)[C@H](CCC(=O)O)NC(=O)C(C)(C)NC1=O [Example 69] (cyclo([Phe(4-(cis-4-COOH-cHex))][4Pal][Phe(4-COOH)]G[Pro(cis-4-F)][Trp(βS-Me,4-F)][Aib]EW[3Aminoazetidine3carboxyl][Ala(pyrimidin-5-yl)]Q[Dab]G[dPro(4R-Bzl(4-F))])) was tested. Which IC50 did it give?
Answer: The IC50 was 0.03 nM.

Question: How did the IC50 turn out when C[C@@H](c1c[nH]c2cccc(F)c12)[C@@H]1NC(=O)[C@@H]2C[C@H](F)CN2C(=O)CNC(=O)[C@H](Cc2ccc(C(=O)O)cc2)NC(=O)[C@H](Cc2ccncc2)NC(=O)[C@H](Cc2ccc(-c3ccc(C(=O)O)cc3)cc2)NC(=O)[C@H]2[C@@H](Cc3cncnc3)CCN2C(=O)CNC(=O)[C@H](CCN)NC(=O)[C@H](CCC(N)=O)NC(=O)[C@H](Cc2cncnc2)NC(=O)C(C)(C)NC(=O)[C@H](Cc2c[nH]c3ccccc23)NC(=O)[C@H](CCC(=O)O)NC(=O)C(C)(C)NC1=O [Example 71] (cyclo([Bip(4'-COOH)][4Pal][Phe(4-COOH)]G[Pro(cis-4-F)][Trp(βS-Me,4-F)][Aib]EW[Aib][Ala(pyrimidin-5-yl)]Q[Dab]G[X9])) was run?
Answer: Its IC50 is 0.058 nM.

Question: Which IC50 does the source give for C[C@@H](c1c[nH]c2cccc(F)c12)[C@@H]1NC(=O)[C@@H]2C[C@H](F)CN2C(=O)CNC(=O)[C@H](Cc2ccc(C(=O)O)cc2)NC(=O)[C@H](Cc2ccncc2)NC(=O)[C@H](Cc2ccc(-c3ccc(C(=O)O)cc3)cc2)NC(=O)[C@H]2C[C@@H](Cc3ccc(F)cc3)CN2C(=O)CNC(=O)[C@H](CCN)NC(=O)[C@H](CCC(N)=O)NC(=O)[C@H](Cc2cccnc2)NC(=O)C(C)(C)NC(=O)[C@H](Cc2c[nH]c3ccccc23)NC(=O)[C@H](CCC(=O)O)NC(=O)C(C)(C)NC1=O [Example 72] (cyclo([3Pal]Q[Dab]G[dPro(4R-Bzl(4-F))][Bip(4'-COOH)][4Pal][Phe(4-COOH)]G[Pro(cis-4-F)][Trp(βS-Me,4-F)][Aib]EW[Aib])) here?
Answer: Its IC50 is 0.027 nM.

Question: With C[C@@H](c1c[nH]c2cccc(F)c12)[C@@H]1NC(=O)[C@@H]2C[C@H](F)CN2C(=O)CNC(=O)[C@H](Cc2ccc(C(=O)O)cc2)NC(=O)[C@H](Cc2ccncc2)NC(=O)[C@H](Cc2ccc(-c3ccc(C(=O)O)cc3)cc2)NC(=O)[C@H]2C[C@@H](Cc3ccc(F)cc3)CN2C(=O)CNC(=O)[C@H](CCN)NC(=O)[C@H](CCC(N)=O)NC(=O)[C@H](Cc2ccccn2)NC(=O)C(C)(C)NC(=O)[C@H](Cc2c[nH]c3ccccc23)NC(=O)[C@H](CCC(=O)O)NC(=O)C(C)(C)NC1=O [Example 73] (cyclo([Bip(4'-COOH)][4Pal][Phe(4-COOH)]G[Pro(cis-4-F)][Trp(βS-Me,4-F)][Aib]EW[Aib][2Pal]Q[Dab]G[dPro(4R-Bzl(4-F))])) as the compound, how does the IC50 read?
Answer: Its IC50 is 0.031 nM.

Question: C[C@@H](c1c[nH]c2cccc(F)c12)[C@@H]1NC(=O)[C@@H]2C[C@H](F)CN2C(=O)CNC(=O)[C@H](Cc2ccc(C(=O)O)cc2)NC(=O)[C@H](Cc2ccncc2)NC(=O)[C@H](Cc2ccc(-c3ccc(C(=O)O)cc3)cc2)NC(=O)[C@H]2C[C@@H](Cc3ccc(F)cc3)CN2C(=O)CNC(=O)[C@H](CCCNC(=N)N)NC(=O)[C@H](CCC(N)=O)NC(=O)[C@H](Cc2ccncc2)NC(=O)C(C)(C)NC(=O)[C@H](Cc2c[nH]c3ccccc23)NC(=O)[C@H](CCC(=O)O)NC(=O)C(C)(C)NC1=O [Example 76] (cyclo([Bip(4'-COOH)][4Pal][Phe(4-COOH)]G[Pro(cis-4-F)][Trp(βS-Me,4-F)][Aib]EW[Aib][4Pal]QRG[dPro(4R-Bzl(4-F))])) was tested. Which IC50 did it give?
Answer: Its IC50 is 0.059 nM.

Question: Which IC50 does the source give for CC(=O)NCCOc1ccc(C[C@@H]2NC(=O)[C@H]3[C@@H](Cc4ccccc4)CCN3C(=O)CNC(=O)[C@H](CCN)NC(=O)[C@H](CCC(N)=O)NC(=O)[C@H](Cc3cncnc3)NC(=O)C(C)(C)NC(=O)[C@H](Cc3c[nH]c4ccccc34)NC(=O)[C@H](CCC(=O)O)NC(=O)C(C)(C)NC(=O)[C@H]([C@@H](C)c3c[nH]c4cccc(F)c34)NC(=O)[C@@H]3C[C@H](F)CN3C(=O)CNC(=O)[C@H](Cc3ccc(C(=O)O)cc3)NC(=O)[C@H](Cc3ccncc3)NC2=O)cc1 [Example 78] (cyclo([AEF](Ac)[4Pal][Phe(4-COOH)]G[Pro(cis-4-F)][Trp(βS-Me,4-F)][Aib]EW[Aib][Ala(pyrimidin-5-yl)]Q[Dab]G[X14])) here?
Answer: Its IC50 is 0.036 nM.

Question: With C[C@@H](c1c[nH]c2cccc(F)c12)[C@@H]1NC(=O)[C@@H]2C[C@H](F)CN2C(=O)CNC(=O)[C@H](Cc2ccc(C(=O)O)cc2)NC(=O)[C@H](Cc2ccncc2)NC(=O)[C@H](Cc2ccc(-c3ncc(C(=O)O)cn3)cc2)NC(=O)[C@H]2C[C@@H](Cc3ccc(F)cc3)CN2C(=O)CNC(=O)[C@H](CCN)NC(=O)[C@H](CCC(N)=O)NC(=O)[C@H](Cc2ccncc2)NC(=O)C2(CNC2)NC(=O)[C@H](Cc2c[nH]c3ccccc23)NC(=O)[C@H](CCC(=O)O)NC(=O)C(C)(C)NC1=O [Example 81] (cyclo([Phe(4-(5-CO2H-2-pyrimidyl))][4Pal][Phe(4-COOH)]G[Pro(cis-4-F)][Trp(βS-Me,4-F)][Aib]EW[3Aminoazetidine3carboxyl][4Pal]Q[Dab]G[dPro(4R-Bzl(4-F))])) as the compound, how does the IC50 read?
Answer: The IC50 was 0.049 nM.

Question: C[C@@H](c1c[nH]c2cccc(F)c12)[C@@H]1NC(=O)[C@@H]2C[C@H](F)CN2C(=O)CNC(=O)[C@H](Cc2ccc(C(=O)O)cc2)NC(=O)[C@H](CC23CC(C2)C3)NC(=O)[C@H](Cc2ccc(-c3ncc(C(=O)O)cn3)cc2)NC(=O)[C@H]2C[C@@H](Cc3ccc(F)cc3)CN2C(=O)CNC(=O)[C@H](CCN)NC(=O)[C@H](CCC(N)=O)NC(=O)[C@H](Cc2cncnc2)NC(=O)C(C)(C)NC(=O)[C@H](Cc2c[nH]c3ccccc23)NC(=O)[C@H](CCC(=O)O)NC(=O)C(C)(C)NC1=O [Example 82] (cyclo([Phe(4-(5-CO2H-2-pyrimidyl))][Ala(1-bicyclo(1.1.1)pentyl)][Phe(4-COOH)]G[Pro(cis-4-F)][Trp(βS-Me,4-F)][Aib]EW[Aib][Ala(pyrimidin-5-yl)]Q[Dab]G[dPro(4R-Bzl(4-F))])) was tested. Which IC50 did it give?
Answer: The IC50 was 0.054 nM.
